Measured values published in patent US20160324738A1, “Oral Compositions Containing Stannous” (The Procter & Gamble Company, priority 2015, published 2016).

Test: In-vitro pH cycling study of enamel fluoride uptake (enamel fluoridation)
Set-up: species or system human
Conditions: both salts at levels providing 1100 ppm of fluoride ion; versus sodium fluoride
Experimental: An in-vitro pH cycling study was conducted to evaluate the effect of excess metals and its modulation on fluoride uptake in pre-demineralized human enamel specimens.

**Q.** For `[F][Sn][F]` [stannous fluoride], which enamel fluoridation is on record?
**A.** less than what is typically seen with sodium fluoride
